Activity calls are given as the source filed them. The calls are words filed in the database; no cut-off is given here.
Assays:
[1] = Toxicity in nude mouse xenografted with human AGS cells assessed as effect on liver morphology at 10 to 20 mg/kg, ip administered every other day and monitored every 3 days by Hematoxyin-eosin staining based analysis; type: organism-based; conditions: in vivo, 72 h, dose 10-20 mg/kg, time 3 day
HGC-27 [2] = experiment: Induction of apoptosis in human HGC-27 cells assessed as early apoptotic cells measured after 24 hrs by AnnexinV-FITC/PI staining based flow cytometry method (reference value: 1.6%); type: functional
Mus musculus = experiment: In vivo inhibition of ERK signalling pathway in nude mouse xenografted with human AGS cells assessed as downregulation of p-ERK levels at 10 to 20 mg/kg, ip administered every other day and monitored every 3 days by western blot analysis; type: functional, organism-based; conditions: dose 10-20 mg/kg, time 3.0 day
AGS [3] = experiment: Induction of apoptosis in human AGS cells assessed as late apoptotic cells at 6 uM measured after 24 hrs by AnnexinV-FITC/PI staining based flowcytometry method (reference value: 3.4%); type: functional
[4] = Toxicity in nude mouse xenografted with human AGS cells assessed as effect on aspartate aminotransferase level at 10 to 20 mg/kg, ip administered every other day and monitored every 3 days; type: organism-based; conditions: in vivo, 72 h, dose 10-20 mg/kg, time 3 day
AGS [5] = experiment: Inhibition of mitochondrial fission in human AGS cells assessed as downregulation of p-DRP1 at 0 to 10 uM measured after 24 hrs by Western blot analysis; type: functional, cell-based; conditions: dose 0-10 µM
AGS [6] = experiment: Induction of apoptosis in human AGS cells assessed as early apoptotic cells at 8 uM measured after 24 hrs by AnnexinV-FITC/PI staining based flowcytometry method (reference value: 1.2%); type: functional
AGS [7] = experiment: Induction of apoptosis in human AGS cells assessed as viable cells measured after 24 hrs by AnnexinV-FITC/PI staining based flow cytometry method (reference value: 95.4 %); type: functional
AGS [8] = experiment: Induction of apoptosis in human AGS cells assessed as upregulation of Bax level at 0 to 10 uM by Western blot analysis; type: functional, cell-based; conditions: dose 0-10 µM
HGC-27 [9] = experiment: Induction of apoptosis in human HGC-27 cells assessed as downregulation of Bcl-2 level at 0 to 10 uM by Western blot analysis; type: functional, cell-based; conditions: dose 0-10 µM
AGS [10] = experiment: Induction of apoptosis in human AGS cells transfected with pcDNA3.1-Drp1 plasmid to overexpress DRP1 assessed as early apoptotic cells and measured after 24 hrs by AnnexinV-FITC/PI staining based flow cytometry method (reference value: 2.1 %); type: functional
AGS [11] = experiment: Induction of apoptosis in human AGS cells assessed as downregulation of Bcl-2 level at 0 to 10 uM by Western blot analysis; type: functional, cell-based; conditions: dose 0-10 µM
AGS [12] = experiment: Induction of cell cycle arrest in human AGS cells assessed as accumulation of cells at G0/G1 phase at 8 uM incubated for 24 hrs propidium iodide staining-based flow cytometric analysis (reference value: 46.51%); type: functional
HGC-27 [13] = experiment: Inhibition of ERK signalling pathway in human […] cells assessed as downregulation of p-ERK levels at 0 to 10 uM and measured after 24 hrs by western blot analysis; type: cell-based; conditions: dose 0-10 µM
HGC-27 [14] = experiment: Induction of apoptosis in human HGC-27 cells transfected with pcDNA3.1-Drp1 plasmid to overexpress DRP1 assessed as early apoptotic cells measured after 24 hrs by AnnexinV-FITC/PI staining based flow cytometry method (reference value: 2.1%); type: functional
AGS [15] = experiment: Inhibition of colony formation of human AGS cells assessed as reduction in colony number at 0 to 10 uM measured after 24 hrs by crystal violet staining assay; type: functional, cell-based; conditions: dose 0-10 µM
HGC-27 [16] = experiment: Induction of apoptosis in human HGC-27 cells assessed as necrotic cells at 6 uM measured after 24 hrs by AnnexinV-FITC/PI staining based flowcytometry method (reference value: 0.2%); type: functional
HGC-27 [17] = experiment: Induction of apoptosis in human HGC-27 cells transfected with pcDNA3.1-Drp1 plasmid to overexpress DRP1 assessed as necrotic cells measured after 24 hrs by AnnexinV-FITC/PI staining based flow cytometry method (reference value: 0%); type: functional
AGS [18] = experiment: Induction of cell cycle arrest in human AGS cells assessed as decrease in CDK4 level at 0 to 10 uM by Western blot analysis; type: functional, cell-based; conditions: dose 0-10 µM
HGC-27 [19] = experiment: Induction of apoptosis in human HGC-27 cells assessed as viable cells at 8 uM measured after 24 hrs by AnnexinV-FITC/PI staining based flowcytometry method (reference value: 91.1%); type: functional; conditions: read-out: Activity
HGC-27 [20] = experiment: Induction of cell cycle arrest in human HGC-27 cells assessed as decrease in CDK4 level at 0 to 10 uM by Western blot analysis; type: functional, cell-based; conditions: dose 0-10 µM
HGC-27 [21] = experiment: Induction of apoptosis in human HGC-27 cells assessed as necrotic cells at 8 uM measured after 24 hrs by AnnexinV-FITC/PI staining based flowcytometry method (reference value: 0.2%); type: functional
AGS [22] = experiment: Induction of apoptosis in human AGS cells assessed as early apoptotic cells at 6 uM measured after 24 hrs by AnnexinV-FITC/PI staining based flowcytometry method (reference value: 1.2%); type: functional
[23] = Toxicity in nude mouse xenografted with human AGS cells assessed as effect on kidney morphology at 10 to 20 mg/kg, ip administered every other day and monitored every 3 days by Hematoxyin-eosin staining based analysis; type: organism-based; conditions: in vivo, 72 h, dose 10-20 mg/kg, time 3 day
AGS [24] = experiment: Antiproliferative activity against human AGS cells assessed as reduction in cell growth measured after 24 hrs by CCK8 assay; type: functional, cell-based
HGC-27 [25] = experiment: Induction of cell cycle arrest in human HGC-27 cells assessed as accumulation of cells at G0/G1 phase at 8 uM incubated for 24 hrs propidium iodide-A staining-based flow cytometric analysis (reference value: 45.21%); type: functional
HGC-27 [26] = experiment: Induction of apoptosis in human HGC-27 cells transfected with pcDNA3.1-Drp1 plasmid to overexpress DRP1 assessed as viable cells measured after 24 hrs by AnnexinV-FITC/PI staining based flow cytometry method (reference value: 95.8%); type: functional
HGC-27 [27] = experiment: Induction of apoptosis in human HGC-27 cells assessed as increase in cleaved caspase-3 level at 0 to 10 uM by Western blot analysis; type: functional, cell-based; conditions: dose 0-10 µM
HGC-27 [28] = experiment: Antiproliferative activity against human HGC-27 cells assessed as reduction in cell growth measured after 24 hrs by CCK8 assay; type: functional, cell-based; conditions: HGC-27, 24 h
AGS [29] = experiment: Induction of cell cycle arrest in human AGS cells assessed as accumulation of cells at G0/G1 phase at 10 uM incubated for 24 hrs propidium iodide staining-based flow cytometric analysis (reference value: 46.51%); type: functional
HGC-27 [30] = experiment: Induction of apoptosis in human HGC-27 cells assessed as early apoptotic cells at 6 uM measured after 24 hrs by AnnexinV-FITC/PI staining based flowcytometry method (reference value: 3.3%); type: functional
AGS [31] = experiment: Inhibition of mitochondrial fission in human AGS cells assessed as reduction in ATP content at 0 to 10 uM measured after 24 hrs by microplate reader assay; type: functional, cell-based; conditions: dose 0-10 µM
HGC-27 [32] = experiment: Inhibition of mitochondrial fission in human HGC-27 cells assessed as reduction in punctiform mitochondria at 0 to 6 uM measured after 24 hrs by mitotracker based confocal microscopy; type: functional; conditions: dose 0-6 µM
HGC-27 [33] = experiment: Induction of apoptosis in human HGC-27 cells assessed as necrotic cells measured after 24 hrs by AnnexinV-FITC/PI staining based flow cytometry method (reference value: 0.1 %); type: functional

Question: Which Activity [1] does the source give for `CC(C)=CCC12Oc3cc(O)ccc3C1(O)Oc1cc(O)c([C@H]3C=C(C)C[C@H](c4ccc(O)cc4O)[C@H]3C(=O)c3ccc(O)cc3O)c(O)c1C2=O` (some centres undefined) here?
Answer: Its Activity is “Non-Toxic”.

Question: What about the Activity (HGC-27 [2]) of the same molecule?
Answer: The Activity was 4.3%.

Question: And the inhibition (Mus musculus)?
Answer: Its inhibition is “Active”.

Question: And the Activity (AGS [3])?
Answer: Its Activity is 7.9%.

Question: What about the Activity [4] of the same molecule?
Answer: The Activity was “Non-Toxic”.

Question: And the inhibition (AGS [5])?
Answer: The inhibition was “Active”.

Question: What about the Activity (AGS [6]) of the same molecule?
Answer: The Activity was 2.1%.

Question: What about the Activity (AGS [7]) of the same molecule?
Answer: Its Activity is 88.8%.

Question: What about the Activity (AGS [8]) of the same molecule?
Answer: Its Activity is “Active”.

Question: What about the Activity (HGC-27 [9]) of the same molecule?
Answer: Its Activity is “Active”.

Question: What about the Activity (AGS [10]) of the same molecule?
Answer: Its Activity is 2.8%.

Question: What about the Activity (AGS [11]) of the same molecule?
Answer: The Activity was “Active”.

Question: What about the Activity (AGS [12]) of the same molecule?
Answer: Its Activity is 54.9%.

Question: And the inhibition (HGC-27 [13])?
Answer: The inhibition was “Active”.

Question: And the Activity (HGC-27 [14])?
Answer: The Activity was 2.4%.

Question: And the inhibition (AGS [15])?
Answer: Its inhibition is “Active”.

Question: What about the Activity (HGC-27 [16]) of the same molecule?
Answer: The Activity was 1.5%.

Question: What about the Activity (HGC-27 [17]) of the same molecule?
Answer: Its Activity is 0.4%.

Question: And the Activity (AGS [18])?
Answer: The Activity was “Active”.

Question: What about the viability at 8 µM (HGC-27 [19]) of the same molecule?
Answer: Its viability at 8 µM is 83.1%.

Question: What about the Activity (HGC-27 [20]) of the same molecule?
Answer: The Activity was “Active”.

Question: What about the Activity (HGC-27 [21]) of the same molecule?
Answer: Its Activity is 1.8%.

Question: And the Activity (AGS [22])?
Answer: The Activity was 1.7%.

Question: And the Activity [23]?
Answer: Its Activity is “Non-Toxic”.

Question: And the IC50 (AGS [24])?
Answer: The IC50 was 9.86 µM.

Question: And the Activity (HGC-27 [25])?
Answer: Its Activity is 62.4%.

Question: What about the Activity (HGC-27 [26]) of the same molecule?
Answer: Its Activity is 95.4%.

Question: What about the Activity (HGC-27 [27]) of the same molecule?
Answer: The Activity was “Active”.

Question: And the IC50 (HGC-27 [28])?
Answer: Its IC50 is 9.13 µM.

Question: And the Activity (AGS [29])?
Answer: The Activity was 55.9%.

Question: And the Activity (HGC-27 [30])?
Answer: The Activity was 4.2%.

Question: What about the inhibition (AGS [31]) of the same molecule?
Answer: The inhibition was “Active”.

Question: And the inhibition (HGC-27 [32])?
Answer: Its inhibition is “Active”.

Question: What about the Activity (HGC-27 [33]) of the same molecule?
Answer: Its Activity is 0.4%.

From ChEMBL document CHEMBL5126640, “Sanggenon C Suppresses Tumorigenesis of Gastric Cancer by Blocking ERK-Drp1-Mediated Mitochondrial Fission” (J Nat Prod, 2022)
